# Measured values as given in ChEMBL document CHEMBL1129656, “A study of the active site of influenza virus sialidase: an approach to the rational design of novel anti-influenza drugs” (J Med Chem, 1996).
# Assay: Compound was tested for the inhibition of influenza virus sialidase using 2'-(4-methylumbelliferyl)-N-acetylneuraminic acid substrate
# Parameters: species or system unidentified influenza virus
row,SMILES,Ki
1,CC(=O)N[C@H]1[C@H]([C@H](O)[C@H](O)CO)OC(C(=O)O)=C[C@H]1N,0.04 µM
2,"CC(=O)N[C@@H]1C(N)C=C(C(=O)O)O[C@H]1[C@H](O)[C@H](O)CO (single isomer, unassigned)",0.3 µM
3,CC(=O)NC1C(O)C=C(C(=O)O)OC1[C@H](O)[C@H](O)CO (stereo not given in full),4 µM
4,CC(=O)N[C@@H]1C(NC(=N)N)C=C(C(=O)O)OC1[C@H](O)[C@H](O)CO (stereo not given in full),3e-05 µM
5,CC(=O)NC1C(O)CC(O)(C(=O)O)OC1[C@H](O)[C@H](O)CO (stereo not given in full),1000 µM
